Source: PubChem BioAssay (NCI)
“And” between values parts separate entries of the source, which are not always exact repeats. Equal values may be shown once.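 48-hour exposure; five concentrations; linearly interpolated endpoints. GI50 is the concentration that inhibits growth by half. TGI: total growth inhibition.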

Experiments:
Test in all cases: NCI anticancer screen, dose series, 48 h
HCC-2998 colon = test system: HCC-2998 colon
KM12 colon = test system: KM12 colon
ACHN renal = test system: ACHN renal
NCI-H226 lung = test system: NCI-H226 lung
UACC-62 melanoma = test system: UACC-62 melanoma
M14 melanoma = test system: M14 melanoma
SN12C renal = test system: SN12C renal
OVCAR-8 ovarian = test system: OVCAR-8 ovarian
MOLT-4 leukemia = test system: MOLT-4 leukemia
T-47D breast = test system: T-47D breast
A549 NSCLC = test system: A549 NSCLC
DMS 273 small cell lung = test system: DMS 273 small cell lung
RXF 393 renal = test system: RXF 393 renal
XF 498 CNS = test system: XF 498 CNS
UO-31 renal = test system: UO-31 renal
LOX IMVI melanoma = test system: LOX IMVI melanoma
DLD-1 colon = test system: DLD-1 colon
SF-539 CNS = test system: SF-539 CNS
KM20L2 colon = test system: KM20L2 colon
HS 578T breast = test system: HS 578T breast
SK-MEL-2 melanoma = test system: SK-MEL-2 melanoma
DU-145 prostate = test system: DU-145 prostate
U251 CNS = test system: U251 CNS
SR leukemia = test system: SR leukemia
RPMI-8226 leukemia = test system: RPMI-8226 leukemia
EKVX NSCLC = test system: EKVX NSCLC
DMS 114 small cell lung = test system: DMS 114 small cell lung
SNB-78 CNS = test system: SNB-78 CNS
BT-549 breast = test system: BT-549 breast
SNB-19 CNS = test system: SNB-19 CNS
MCF7 breast = test system: MCF7 breast
SW-620 colon = test system: SW-620 colon
NCI-H522 lung = test system: NCI-H522 lung

O=C1C=C(N2CC2)C(=O)C=C1N1CC1
GI50 (HCC-2998 colon): 23.4 nM | TGI (HCC-2998 colon): 150 nM and 739 nM | GI50 (KM12 colon): 242 nM | TGI (KM12 colon): 2220 nM | TGI (ACHN renal): 303 nM | GI50 (NCI-H226 lung): 12.9 nM | TGI (NCI-H226 lung): 261 nM and 1400 nM | GI50 (UACC-62 melanoma): 10 nM | GI50 (M14 melanoma): 28.8 nM | TGI (M14 melanoma): 249 nM | GI50 (SN12C renal): 30.7 nM | TGI (SN12C renal): 278 nM and 1140 nM | TGI (OVCAR-8 ovarian): 4310 nM | GI50 (MOLT-4 leukemia): 1.97 nM | TGI (MOLT-4 leukemia): 248 nM | GI50 (T-47D breast): 51.6 nM | TGI (T-47D breast): 582 nM and 2850 nM | GI50 (A549 NSCLC): 145 nM and 860 nM | TGI (A549 NSCLC): 11200 nM | TGI (DMS 273 small cell lung): 520 nM | GI50 (RXF 393 renal): 2.46 nM | TGI (XF 498 CNS): 538 nM | TGI (UO-31 renal): 229 nM | GI50 (LOX IMVI melanoma): 29.8 nM | TGI (LOX IMVI melanoma): 206 nM and 386 nM | TGI (DLD-1 colon): 1500 nM | GI50 (SF-539 CNS): 22.1 nM | TGI (SF-539 CNS): 267 nM and 268 nM | TGI (KM20L2 colon): 1740 nM | TGI (HS 578T breast): 8140 nM | GI50 (SK-MEL-2 melanoma): 28.2 nM | TGI (SK-MEL-2 melanoma): 60.5 nM and 360 nM | GI50 (DU-145 prostate): 10.9 nM | GI50 (U251 CNS): 23.3 nM | TGI (U251 CNS): 284 nM and 1490 nM | GI50 (SR leukemia): 26.6 nM | TGI (SR leukemia): 302 nM | GI50 (RPMI-8226 leukemia): 45.6 nM | TGI (RPMI-8226 leukemia): 503 nM and 1870 nM | GI50 (EKVX NSCLC): 404 nM and 2650 nM | TGI (EKVX NSCLC): 4840 nM | TGI (DMS 114 small cell lung): 644 nM | TGI (SNB-78 CNS): 1800 nM | GI50 (BT-549 breast): 20.7 nM | TGI (BT-549 breast): 159 nM and 1340 nM | GI50 (SNB-19 CNS): 203 nM | TGI (SNB-19 CNS): 4720 nM | GI50 (MCF7 breast): 2.05 nM | TGI (MCF7 breast): 71.2 nM | GI50 (SW-620 colon): 14.7 nM | TGI (SW-620 colon): 848 nM | GI50 (NCI-H522 lung): 8.26 nM
